Results: patent EP1409705B1, “A PROCESS FOR THE PRODUCTION OF AN INHIBITOR OF HUMAN PLATELET AGGREGATION AND SOYBEAN LIPOXYGENASE” (Council of Scientific and Industrial Research;an Indian …, priority 2001, dated 2002)

Assays:
[1] = tested on: human platelet aggregation; test: human platelet aggregation inhibition; type: cell-based; conditions: purified inhibitor, red crystals, read-out: ic50 activity against human platelet aggregation
[2] = target: T1, soybean lipoxygenase (Glycine max, UniProt P08170); test: soybean lipoxygenase inhibition; type: biochemical; conditions: purified inhibitor, red crystals; pH 9; read-out: ic50 activity against soybean lipoxygenase
T1 sequence (P08170 1-839): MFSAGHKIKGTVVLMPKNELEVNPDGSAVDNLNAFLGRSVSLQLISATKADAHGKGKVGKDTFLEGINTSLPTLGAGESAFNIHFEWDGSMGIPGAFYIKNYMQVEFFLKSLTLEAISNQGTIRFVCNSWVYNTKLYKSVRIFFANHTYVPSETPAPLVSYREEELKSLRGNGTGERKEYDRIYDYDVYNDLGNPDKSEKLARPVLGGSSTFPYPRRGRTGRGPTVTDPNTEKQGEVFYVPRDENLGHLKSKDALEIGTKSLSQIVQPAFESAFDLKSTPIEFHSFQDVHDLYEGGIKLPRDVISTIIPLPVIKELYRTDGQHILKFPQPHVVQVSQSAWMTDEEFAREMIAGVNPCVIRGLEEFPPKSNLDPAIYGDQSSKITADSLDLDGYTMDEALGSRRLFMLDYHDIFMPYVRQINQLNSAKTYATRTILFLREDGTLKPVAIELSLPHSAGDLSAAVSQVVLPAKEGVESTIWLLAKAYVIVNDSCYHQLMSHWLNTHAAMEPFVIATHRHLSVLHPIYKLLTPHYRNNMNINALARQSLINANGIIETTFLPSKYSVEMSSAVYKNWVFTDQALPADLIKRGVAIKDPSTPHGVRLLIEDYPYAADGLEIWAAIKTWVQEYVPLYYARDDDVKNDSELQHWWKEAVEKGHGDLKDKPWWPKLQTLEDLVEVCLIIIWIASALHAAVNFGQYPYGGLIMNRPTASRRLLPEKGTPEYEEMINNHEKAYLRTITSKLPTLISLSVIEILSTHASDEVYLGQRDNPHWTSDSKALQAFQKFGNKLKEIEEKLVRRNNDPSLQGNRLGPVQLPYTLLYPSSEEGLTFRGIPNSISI

[3] = solubility in organic solvents; type: physicochemical; conditions: in chloroform, dimethylsulfoxide, acetonitrile

IC50 [1]: 234 µM
IC50 [2]: 95.6 µM
Solubility [3]: highly soluble
Structure (SMILES): CCC(=O)C=CC=CC(C)=CC=CC=Cc1ccccc1 [inhibitor, 8-methyl 13-phenyl trideca 4,6,8,10,12 pentene-3-one]
